Test results reported in the CheMixHub viscosity set.

Test: xn = mol fraction of the nth substance listed

CC(=O)OCCC1CCCCC1 + CCCCCCCCCCO
viscosity [mPa·s], 101 kPa
Settings	300 K	310 K	320 K
x2 = 0.1066	2.65	2.14	1.77
x2 = 0.1534	2.74	2.2	1.82
x2 = 0.2863	2.94	2.34	1.91
x2 = 0.337	3.14	2.46	2.01
x2 = 0.4105	3.47	2.72	2.15
x2 = 0.4983	3.91	3.02	2.41
x2 = 0.5476	4.25	3.26	2.56
x2 = 0.6306	4.92	3.76	2.93
x2 = 0.702	5.57	4.15	3.18
x2 = 0.7382	5.93	4.4	3.37
x2 = 0.8402	7.22	5.25	3.94
x2 = 0.9332	8.92	6.35	4.67

CCCCCCCCCO + CCCCCCCCO
viscosity [mPa·s], 101.8 kPa
Settings	x2 = 0.1095	x2 = 0.3227	x2 = 0.5251	x2 = 0.7208	x2 = 0.9082
298.15 K	9.3	8.885	8.493	8.137	7.796
308.15 K	6.575	6.317	6.057	5.821	5.595
318.15 K	4.761	4.579	4.408	4.248	4.093

CCCCCCCCCO + CCCCCCCO
viscosity [mPa·s], 101.8 kPa
Settings	x2 = 0.1184	x2 = 0.3815	x2 = 0.5514	x2 = 0.7089	x2 = 0.9183
298.15 K	9.014	7.935	7.47	6.84	6.013
308.15 K	6.366	5.68	5.353	4.96	4.408
318.15 K	4.618	4.157	3.932	3.662	3.286

CCCCCC[n+]1ccn(C)c1.O=[N+]([O-])[O-] + CCCCCCCO
Settings	viscosity [mPa·s]
308.15 K, 100 kPa, x1 = 0.9381	206.5

CCCCCCCCCO + CCCCCCO
viscosity [mPa·s], 101.8 kPa
Settings	x2 = 0.1351	x2 = 0.4186	x2 = 0.5817	x2 = 0.7358	x2 = 0.9282
298.15 K	8.731	7.177	6.384	5.606	4.847
308.15 K	6.206	5.187	4.651	4.127	3.596
318.15 K	4.51	3.821	3.453	3.093	2.717

CC(=O)N(C)C + CCCCCO
viscosity [mPa·s], 100 kPa
Settings	298.15 K	313.15 K
x1 = 0.0569	3.02	2.057
x1 = 0.1068	2.69	1.887
x1 = 0.2009	2.246	1.634
x1 = 0.3051	1.92	1.419
x1 = 0.4017	1.68	1.283
x1 = 0.4989	1.498	1.159
x1 = 0.6011	1.358	1.065
x1 = 0.7029	1.223	0.973
x1 = 0.7966	1.121	0.895
x1 = 0.8962	1.041	0.833
x1 = 0.9519	0.981	0.8

CCC1CCCCC1 + CCCCCO
viscosity [mPa·s], 100 kPa
Settings	x2 = 0.1003	x2 = 0.2013	x2 = 0.3005	x2 = 0.4001	x2 = 0.5004	x2 = 0.5995	x2 = 0.7009	x2 = 0.8003	x2 = 0.9007
293.15 K	0.91	0.99	1.108	1.248	1.489	1.788	2.169	2.681	3.292
298.15 K	0.845	0.915	1.024	1.177	1.339	1.613	1.948	2.339	2.862
303.15 K	0.785	0.848	0.943	1.071	1.21	1.425	1.724	2.056	2.495
308.15 K	0.728	0.778	0.855	0.942	1.087	1.263	1.501	1.796	2.166
313.15 K	0.682	0.73	0.801	0.882	0.998	1.156	1.337	1.602	1.92
318.15 K	0.651	0.693	0.752	0.834	0.929	1.061	1.246	1.454	1.723
323.15 K	0.61	0.647	0.697	0.773	0.849	0.959	1.115	1.294	1.529

CCOC(=O)c1cccc(O)c1 + CCCCCOC(C)=O
Settings	viscosity [mPa·s]
298.15 K, 101 kPa, x2 = 0.5	1.587

O=[N+]([O-])c1ccccc1O + CCCCCOC(C)=O
Settings	viscosity [mPa·s]
298.15 K, 101 kPa, x1 = 0.5	1.051

CC1CCCCC1=O (stereo not drawn) + CCCCN
303.15 K, 101.33 kPa
Settings	viscosity [mPa·s]
x2 = 0.1214	1.802
x2 = 0.2017	1.906
x2 = 0.3249	1.944
x2 = 0.4512	1.826
x2 = 0.5524	1.715
x2 = 0.6849	1.417
x2 = 0.8025	1.126
x2 = 0.8938	0.855

CC(=O)N(C)C + CCCCO
viscosity [mPa·s]
Settings	298.15 K	303.15 K	313.15 K
100 kPa, x1 = 0.0565	2.252	–	1.598
100 kPa, x1 = 0.1063	2.049	–	1.477
100 kPa, x1 = 0.2094	1.716	–	1.287
100 kPa, x1 = 0.3134	1.503	–	1.15
100 kPa, x1 = 0.4106	1.361	–	1.063
100 kPa, x1 = 0.5083	1.263	–	0.9979
100 kPa, x1 = 0.6042	1.179	–	0.9502
100 kPa, x1 = 0.7096	1.119	–	0.9082
100 kPa, x1 = 0.8046	1.061	–	0.8651
100 kPa, x1 = 0.9078	0.9922	–	0.8128
100 kPa, x1 = 0.9575	0.9601	–	0.7894
101 kPa, x1 = 0.0968	–	1.862	–
101 kPa, x1 = 0.1997	–	1.585	–
101 kPa, x1 = 0.2976	–	1.43	–
101 kPa, x1 = 0.4	–	1.281	–
101 kPa, x1 = 0.4956	–	1.181	–
101 kPa, x1 = 0.599	–	1.097	–
101 kPa, x1 = 0.6978	–	1.029	–
101 kPa, x1 = 0.7867	–	0.975	–
101 kPa, x1 = 0.9006	–	0.917	–

CC(=O)N1CCOCC1 + CCCCO
viscosity [mPa·s], 101 kPa
Settings	293.15 K	303.15 K	313.15 K	323.15 K
x1 = 0.0555	4.367	3.576	2.739	1.957
x1 = 0.1321	5.668	4.813	3.879	3.051
x1 = 0.2165	6.805	5.881	5.042	4.16
x1 = 0.2844	7.59	6.613	5.581	4.657
x1 = 0.3126	7.757	6.756	5.6	4.662
x1 = 0.4042	8.369	7.294	6.023	5.03
x1 = 0.4673	8.697	7.57	6.22	5.191
x1 = 0.5033	8.878	7.734	6.31	5.257
x1 = 0.5562	9.001	7.801	6.341	5.256
x1 = 0.6237	9.088	7.833	6.29	5.164
x1 = 0.6431	8.989	7.719	6.152	5.014
x1 = 0.6903	9.041	7.732	6.105	4.937
x1 = 0.7439	8.864	7.512	5.819	4.62
x1 = 0.7911	8.713	7.322	5.569	4.342
x1 = 0.8624	8.88	7.431	5.591	4.32
x1 = 0.9222	8.663	7.164	5.249	3.943
x1 = 0.9785	8.737	7.193	5.209	3.868

CCC1CCCCC1 + CCCCO
viscosity [mPa·s], 100 kPa
Settings	x2 = 0.1001	x2 = 0.2	x2 = 0.3001	x2 = 0.4	x2 = 0.4999	x2 = 0.5997	x2 = 0.7	x2 = 0.8	x2 = 0.9
293.15 K	0.867	0.908	0.984	1.1	1.254	1.451	1.718	2.051	2.436
298.15 K	0.813	0.849	0.912	1.007	1.142	1.314	1.549	1.817	2.157
303.15 K	0.758	0.793	0.851	0.929	1.045	1.202	1.399	1.625	1.911
308.15 K	0.716	0.744	0.794	0.861	0.958	1.08	1.25	1.465	1.711
313.15 K	0.666	0.692	0.729	0.791	0.871	0.98	1.121	1.303	1.515
318.15 K	0.628	0.646	0.681	0.734	0.803	0.894	1.018	1.174	1.351
323.15 K	0.584	0.604	0.633	0.678	0.737	0.814	0.924	1.058	1.219

CCCCCCCCCO + CCCCO
viscosity [mPa·s]
Settings	293.15 K	298.15 K	308.15 K	318.15 K
101 kPa, x2 = 0.05	–	8.644	6.182	4.486
101 kPa, x2 = 0.1	–	8.219	5.878	4.303
101 kPa, x2 = 0.15	–	7.816	5.598	4.121
101 kPa, x2 = 0.2	–	7.431	5.336	3.941
101 kPa, x2 = 0.25	–	7.062	5.089	3.764
101 kPa, x2 = 0.3	–	6.704	4.852	3.589
101 kPa, x2 = 0.35	–	6.356	4.623	3.418
101 kPa, x2 = 0.4	–	6.016	4.398	3.251
101 kPa, x2 = 0.45	–	5.681	4.177	3.088
101 kPa, x2 = 0.5	–	5.353	3.957	2.929
101 kPa, x2 = 0.55	–	5.029	3.738	2.774
101 kPa, x2 = 0.6	–	4.71	3.52	2.623
101 kPa, x2 = 0.65	–	4.397	3.303	2.477
101 kPa, x2 = 0.7	–	4.091	3.088	2.335
101 kPa, x2 = 0.75	–	3.793	2.877	2.198
101 kPa, x2 = 0.8	–	3.506	2.672	2.064
101 kPa, x2 = 0.85	–	3.234	2.476	1.933
101 kPa, x2 = 0.9	–	2.977	2.292	1.806
101 kPa, x2 = 0.95	–	2.742	2.125	1.681
101.33 kPa, x2 = 0.1608	9.868	–	–	–
101.33 kPa, x2 = 0.2186	–	7.719	–	–
101.33 kPa, x2 = 0.3832	7.621	–	–	–
101.33 kPa, x2 = 0.4166	–	6.168	–	–
101.33 kPa, x2 = 0.5129	–	5.48	–	–
101.33 kPa, x2 = 0.5372	6.237	–	–	–
101.33 kPa, x2 = 0.6368	–	4.634	–	–
101.33 kPa, x2 = 0.6674	5.169	–	–	–
101.33 kPa, x2 = 0.7995	4.296	–	–	–
101.33 kPa, x2 = 0.8253	–	3.486	–	–
101.33 kPa, x2 = 0.8991	3.529	–	–	–
101.33 kPa, x2 = 0.9103	–	3.019	–	–

CC(=O)N(C)C + CCCCn1cc[n+](C)c1.F[B-](F)(F)F
101.33 kPa
Settings	viscosity [mPa·s]
293.15 K, x2 = 0.8488	74.2
293.15 K, x2 = 0.9175	95.64
298.15 K, x2 = 0.9175	80.5
308.15 K, x2 = 0.437	7.88
323.15 K, x2 = 0.7419	9.78
